Values of other authors in US10813877B2, “Oral care products and methods” (MGE HOLDINGS LLC, priority 2016, dated 2020).

Tested on: cells
Conditions: ex vivo

SMILES: [H]/N=C(\N/C(=N/[H])NCCCCCCNC(=N)NC(=N)Nc1ccc(Cl)cc1)Nc1ccc(Cl)cc1 [chlorhexidine]
- cytotoxic effect on cells: cytotoxic effect
